Data: patent publication US20190076461A1, “MATERIALS AND METHODS FOR TREATING HYPOXIC CONDITIONS” (MitoGenetics, LLC, priority 2016, published 2019)

Legend:
Assay type in all cases: cell-based
Settings in all cases: 24 hour incubation, vs vehicle treated cells
[1] = test system: COX8A (cytochrome c oxidase subunit VIIIA); assay: DNA microarray of embryonic chicken liver cells incubated with selenomethionine: COX8A expression
Procedure: (§1) Embryonic chicken kidney and liver cells were obtained from Charles River Laboratories, Inc. Cells were cultured in 75 cc flasks. Each flask represented a treatment group as follows: Control, 1 nM selenomethionine. Treatments consisted of 24 hour incubations with selenomethionine. After that period, samples were processed for microarray analysis. Experiments were performed in triplicate. DNA microarray analyses were performed using a system provided by Agilent. Arrays included four arrays per chip (Agilent 4×44K chip). Total RNA was reverse transcribed (1000 ng) using T7 primers and labeled and transcribed using Cyanine-3 dye. Each array was hybridized with at least 1.65 μg of labeled cRNA at 65° C. for 18 hours. Arrays were scanned using an Agilent array scanner. The microarray platform can determine a minimum of a 1.5 fold change in gene expression. Fold changes between homozygous ZDF rats fed potosaccharide for 28 days vs homozygous ZDF rats fed an equivalent amount of vehicle (control) were examined. In addition, gene expression was measured in heterozygous ZDF (lean rats) fed with vehicle only and compared to gene expression in homozygous ZDF control rats. Fold changes were used to calculate a percent restoration by using the fold changes between homozygous ZDF rats fed potosaccharide and lean control rats.

[2] = test system: COX19 (COX19 cytochrome c oxidase assembly homolog); assay: DNA microarray of embryonic chicken liver cells incubated with selenomethionine: COX19 expression
Procedure: as §1

[3] = test system: MOCS2 (molybdenum cofactor synthesis 2); assay: DNA microarray of embryonic chicken liver cells incubated with selenomethionine: MOCS2 expression
Procedure: as §1

[4] = test system: COX7A2 (cytochrome c oxidase subunit VIIa polypeptide 2); assay: DNA microarray of embryonic chicken liver cells incubated with selenomethionine: COX7A2 expression
Procedure: as §1

[5] = test system: ATOX1 (ATX1 antioxidant protein 1 homolog); assay: DNA microarray of embryonic chicken liver cells incubated with selenomethionine: ATOX1 expression
Procedure: as §1

[6] = test system: COX10 (COX10 homolog, cytochrome c oxidase assembly protein, heme A: farnesyltransferase); assay: DNA microarray of embryonic chicken liver cells incubated with selenomethionine: COX10 expression
Procedure: as §1

## C[Se]CC[C@H](N)C(=O)O [selenomethione, L-selenomethionine]
[1]
  Fold Change (1 nM Se vs Control), COX8A: 1.5 fold
[2]
  Fold Change (1 nM Se vs Control), COX19: 1.3 fold
[3]
  Fold Change (1 nM Se vs Control), MOCS2: 2.2 fold
[4]
  Fold Change (1 nM Se vs Control), COX7A2: 2.2 fold
[5]
  Fold Change (1 nM Se vs Control), ATOX1: 1.4 fold
[6]
  Fold Change (1 nM Se vs Control), COX10: 1.4 fold
